The assay has as its target human HPK1 (MAP4K1) (Homo sapiens (Human), UniProt Q92918). In words: HPK1 IC50 Assay (TR-FRET biochemical kinase assay, STK S1 peptide substrate). The note with it: recombinant human HPK1 kinase domain 0.15 nM, 10 μM ATP, 1 μM STK S1 peptide. The method, then:
The enzymatic activity of human HPK1 (MAP4K1) was monitored in a biochemical assay in the presence or absence of compounds and using a synthetic peptide substrate. An increase in phosphorylation of the peptide by HPK1 was indicative of its kinase activity.
Recombinant HPK1 kinase domain produced via baculovirus infection of insect cells was obtained from Proteros (Proteros Biostructures #PR-0322) and was pre-activated in the presence of 2 mM ATP (Sigma-Aldrich, cat #GE27-2056-01) and 2 mM magnesium chloride for 16 hours at 4° C. The protein reaction mixture was then loaded to a desalting column (Thermo Fisher Scientific, Cat #89889) to remove excess ATP. HPK1 was eluted with buffer containing 20 mM Tris (2-Amino-2-(hydroxymethyl)propane-1,3-diol) pH 8.0, 150 mM NaCl, 2 mM dithiothreitol and 5% glycerol, and was frozen at −80° C. for later use.
Ten nanoliters of test compounds dissolved in DMSO at various concentrations were dispensed into a 384-well ProxiPlate (PerkinElmer #6008289). Five microliters of a solution of recombinant HPK1 diluted in HPK1 kinase assay buffer (50 mM BES [N,N-Bis(2-hydroxyethyl)-2-aminoethanesulfonic acid], pH 7.0; 10 mM magnesium chloride; 0.01% Triton X-100; 1 mM dithiothreitol; 0.01% bovine serum albumin; 0.1 mM sodium orthovanadate) was added to the compound-containing plate and was incubated for 15 minutes at 25° C. Five microliters of a mixture of ATP (Sigma-Aldrich #A6559) and peptide substrate STK S1 (Cisbio #61ST1BLC) diluted in HPK1 kinase assay buffer was then added to start the reaction. Final concentrations were 0.15 nM for HPK1, 10 μM for ATP, and 1 μM for the STK S1 peptide substrate. The reaction mixture was incubated at 25° C. for 3 hours and was stopped with the addition of 10 μl of an EDTA (Ethylenediaminetetraacetic acid)-containing detection buffer (Cisbio #62SDBRDF) supplemented with Europium cryptate-labeled anti-phospho-serine/threonine antibodies (Cisbio #62ST1PEJ) and XL665-labeled streptavidin (Cisbio #610SAXLG). The mixture was incubated for 16 hours at room temperature and peptide phosphorylation was measured by time-resolved fluorescence energy transfer (665 nm/620 nm) on an Envision plate reader (PerkinElmer).
Data in Table 1 were normalized based on positive (staurosporine) and negative (DMSO) controls. Least squares curve fittings were performed using a four-parameter variable slope nonlinear regression model. IC50 is defined as the concentration of compound required to inhibit 50% of maximum phosphorylation. IC50 values from multiple experiments were averaged by geometric mean and the standard deviation was calculated.

Where [1] appears, read: geometric mean of multiple experiments.

This is an account of results in US11071730B2, “Substituted 6-azabenzimidazole compounds” (Gilead Sciences, Inc., priority 2018, dated 2021).

Sequence of human HPK1 (MAP4K1) (Q92918 17-274): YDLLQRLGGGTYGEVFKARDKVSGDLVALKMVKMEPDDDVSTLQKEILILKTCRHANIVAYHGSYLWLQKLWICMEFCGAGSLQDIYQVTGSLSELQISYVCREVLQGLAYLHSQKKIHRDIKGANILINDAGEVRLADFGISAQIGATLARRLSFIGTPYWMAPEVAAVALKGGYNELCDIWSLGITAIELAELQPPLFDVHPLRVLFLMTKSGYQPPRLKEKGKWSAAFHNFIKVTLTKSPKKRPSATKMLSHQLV

Turning to `CO[C@H]1C[C@@H](C(=O)N2CCC3(CC2)C(=O)N([C@H]2C[C@@H](N4CCC(C)(C)C4)C2)c2cc(-c4cc5ncn(C(C)C)c5c(Nc5ccncc5F)n4)ccc23)C1` [Example 156], the IC50 (geometric mean) was determined as 0.2 nM.
On the same count and under the same terms, as for `CC(C)n1cnc2cc(-c3ccc4c(c3)N([C@H]3C[C@@H](N5C6COCC5C6)C3)C(=O)C4(C)C)nc(Nc3ccncc3F)c21` [Example 190], the figure is 2.1 nM.
With `Cc1cc(Nc2nc(-c3ccc4c(c3)N([C@H]3C[C@@H](NCC(C)(C)O)C3)C(=O)C4(C)C)cc3ncn(C(C)C)c23)c(F)cn1` [Example 53], under setting [1], the IC50 stood at 2.1 nM.
As for `CC(C)n1cnc2cc(-c3ccc4c(c3)N([C@H]3C[C@@H](N5C[C@@H](C)[C@@H](C)C5)C3)C(=O)C4(C)C)nc(Nc3ccncc3F)c21` [Example 57], under setting [1], the IC50 worked out at 0.4 nM.
Still for that read-out and setting: with `CC(=O)N1CCC2(CC1)C(=O)N([C@H]1C[C@@H](N3CCCCC3)C1)c1cc(-c3cc4ncn(C(C)C)c4c(Nc4ccncc4F)n3)ccc12` [Example 67, 1′-acetyl-6-(4-((3-fluoropyridin-4-yl)amino)-3-isopropyl-3H-imidazo[4,5-c]pyridin-6-yl)-1-((1s,3s)-3-(piperidin-1-yl)cyclobutyl)spiro[indoline-3,4′-piperidin]-2-one] the figure was 0.5 nM; with `CC(C)n1cnc2cc(-c3ccc4c(c3)N([C@H]3C[C@@H](N5CCCCC5)C3)C(=O)[C@@]4(C)O)nc(Nc3ccncc3F)c21` [Example 55A, 6-(4-((3-fluoropyridin-4-yl)amino)-3-isopropyl-3H-imidazo[4,5-c]pyridin-6-yl)-3-hydroxy-3-methyl-1-((1s,3s)-3-(piperidin-1-yl)cyclobutyl)indolin-2-one], 1.2 nM.
Take `COC(C)(C)C(=O)N1CCC2(CC1)C(=O)N([C@H]1C[C@@H](N3CCCCC3)C1)c1cc(-c3cc4ncn(C(C)C)c4c(Nc4ccncc4F)n3)ccc12` [Example 145]: the IC50 (geometric mean) was 0.4 nM.
For `CC(=O)N1CCC2(CC1)C(=O)N([C@H]1C[C@@H](N3CCC4(CC4)C3)C1)c1cc(-c3cc4ncn(C(C)C)c4c(Nc4ccncc4F)n3)ccc12` [Example 178], the IC50 (geometric mean) turned out to be 0.8 nM.
`CC(C)n1cnc2cc(-c3ccc4c(c3)N([C@H]3C[C@@H](N5CCC(C)(C)C5)C3)C(=O)C43CCN(C(=O)[C@@H]4CCOC4)CC3)nc(Nc3ccncc3F)c21` [Example 17]: the IC50 under setting [1] was found to be 0.3 nM.
Still for that read-out and setting: as for `CC(C)n1cnc2cc(-c3ccc4c(c3)N([C@H]3C[C@@H](N5CCC(C)(C)C5)C3)C(=O)C43CCN(C(=O)CC4COC4)CC3)nc(Nc3ccncc3F)c21` [Example 21], the figure is 0.4 nM.
Turning to `CC(C)n1cnc2cc(-c3ccc4c(c3)N([C@H]3C[C@@H](N5C[C@@H](C)[C@@H](C)C5)C3)C(=O)C43CCN(C(=O)C(C)(C)CO)CC3)nc(Nc3ccncc3F)c21` [Example 10], under setting [1], the IC50 turned out to be 0.05 nM.
Consider `CC(=O)N1CCC2(CC1)C(=O)N([C@H]1C[C@@H](N3CCCCC3)C1)c1cc(-c3cc4ncn(C(C)C)c4c(Nc4cc(N(C)C)ncc4F)n3)ccc12` [Example 99], for which the IC50 (geometric mean) came to 1.6 nM.
On to `CC(C)n1cnc2cc(-c3ccc4c(c3)N([C@H]3C[C@@H](N5CC[C@H](F)C5)C3)C(=O)C43CCN(C4COC4)CC3)nc(Nc3ccncc3F)c21` [Example 46], for which the IC50 under setting [1] amounted to 1.1 nM.
In the case of `CC(C)n1cnc2cc(-c3ccc4c(c3)N([C@H]3C[C@@H](N5CCCCC5)C3)C(=O)C43CCN(C4COC4)CC3)nc(Nc3ccncc3F)c21` [Example 174, 6-(4-((3-fluoropyridin-4-yl)amino)-3-isopropyl-3H-imidazo[4,5-c]pyridin-6-yl)-1′-(oxetan-3-yl)-1-((1s,3s)-3-(piperidin-1-yl)cyclobutyl)spiro[indoline-3,4′-piperidin]-2-one], the IC50 (geometric mean) was determined as 0.5 nM.
Still for that read-out and setting: as for `CC(C)n1cnc2cc(-c3ccc4c(c3)N([C@H]3C[C@@H](N5CCCCC5)C3)C(=O)C43CCN(C(=O)C4(F)CCC4)CC3)nc(Nc3ccncc3F)c21` [Example 149], the figure is 0.5 nM.
With `CC(=O)N1CCC2(CC1)C(=O)N([C@H]1C[C@@H](N3CCC[C@@H](C)C3)C1)c1cc(-c3cc4ncn(C(C)C)c4c(Nc4ccncc4F)n3)ccc12` [Example 32], the IC50 under setting [1] turned out to be 0.6 nM.
Turning to `Cc1cc(Nc2nc(-c3ccc4c(c3)N([C@H]3C[C@@H](N5CCC(C)(C)C5)C3)C(=O)C43CCN(C(=O)C(C)(C)CO)CC3)cc3ncn(C(C)C)c23)c(F)cn1` [Example 131], the IC50 (geometric mean) came to 0.6 nM.
As for `CC(C)n1cnc2cc(-c3ccc4c(c3)N([C@H]3C[C@@H](N5CCC(C)(C)C5)C3)C(=O)C43CCN(C(=O)C4CCOCC4)CC3)nc(Nc3ccncc3F)c21` [Example 23], the IC50 under setting [1] was found to be 0.2 nM.
For `CC(C)n1cnc2cc(-c3ccc4c(c3)N([C@H]3C[C@@H](N5CCC(C)(C)C5)C3)C(=O)C43CCN(C(=O)[C@H]4CCO4)CC3)nc(Nc3ccncc3F)c21` (single isomer, unassigned) [Example 78B, 1-((1s,3s)-3-(3,3-dimethylpyrrolidin-1-yl)cyclobutyl)-6-(4-((3-fluoropyridin-4-yl)amino)-3-isopropyl-3H-imidazo[4,5-c]pyridin-6-yl)-1′-(oxetane-2-carbonyl)spiro[indoline-3,4′-piperidin]-2-one], the IC50 under setting [1] came out at 0.3 nM.
On the same count and under the same terms, with `CC(C)n1cnc2cc(-c3ccc4c(c3)N([C@H]3C[C@@H](N5CC(C)(C)C[C@@H]5CO)C3)C(=O)C43CCN(C4COC4)CC3)nc(Nc3ccncc3F)c21` [Example 39] the figure was 0.6 nM.
For `CC(C)n1cnc2cc(-c3ccc4c(c3)N([C@H]3C[C@@H](N5CCC(C)(C)C5)C3)C(=O)C43CCN(C(=O)c4cocn4)CC3)nc(Nc3ccncc3F)c21` [Example 154], for the setting “geometric mean”, the IC50 is 0.3 nM.
For `CNC(=O)c1cc(Nc2nc(-c3ccc4c(c3)N([C@H]3C[C@@H](N5CCCCC5)C3)C(=O)C4(C)C)cc3ncn(C(C)C)c23)c(F)cn1` [Example 88], the IC50 under setting [1] was 8.2 nM.
Same read-out and setting: with `CC(C)n1cnc2cc(-c3ccc4c(c3)N([C@H]3C[C@@H](N5CCC(C)(C)C5)C3)C(=O)C43CCN(C(=O)C(C)(C)O)CC3)nc(Nc3ccncc3F)c21` [Example 4] the figure was 0.4 nM; with `CC(C)n1cnc2cc(-c3ccc4c(c3)N([C@H]3C[C@@H](N5CCC(C(F)F)C5)C3)C(=O)C43CCN(C4COC4)CC3)nc(Nc3ccncc3F)c21` (stereo partly drawn) [Example 48], 1.5 nM.
`CC(C)[C@H](O)C(=O)N1CCC2(CC1)C(=O)N([C@H]1C[C@@H](N3CCC(C)(C)C3)C1)c1cc(-c3cc4ncn(C(C)C)c4c(Nc4ccncc4F)n3)ccc12` [Example 119]: the IC50 (geometric mean) came out at 0.2 nM.
Consider `CC(C)n1cnc2cc(-c3ccc4c(c3)N([C@H]3C[C@@H](N5CCCCC5)C3)C(=O)C43CCN(C(=O)[C@@H](C)O)CC3)nc(Nc3ccc(F)nc3F)c21` [Example 68], for which the IC50 under setting [1] turned out to be 0.1 nM.
Turning to `CCC(=O)N1CCC2(CC1)C(=O)N([C@H]1C[C@@H](N3CCCCC3)C1)c1cc(-c3cc4ncn(C(C)C)c4c(Nc4ccncc4F)n3)ccc12` [Example 167, 6-(4-((3-fluoropyridin-4-yl)amino)-3-isopropyl-3H-imidazo[4,5-c]pyridin-6-yl)-1-((1s,3s)-3-(piperidin-1-yl)cyclobutyl)-1′-propionylspiro[indoline-3,4′-piperidin]-2-one], the half-inhibitory concentration (IC50) (geometric mean) was found to be 0.4 nM.
In the case of `CC(C)n1cnc2cc(-c3ccc4c(c3)N([C@H]3C[C@@H](N5CCC(C)(C)C5)C3)C(=O)C43CCN(C(=O)C4(C)COC4)CC3)nc(Nc3ccc(F)nc3F)c21` [Example 165], where the note is “geometric mean”, the IC50 came out at 0.06 nM.
For `CC(C)n1cnc2cc(-c3cnc4c(c3)N([C@H]3C[C@@H](N5CCCCC5)C3)C(=O)C4(C)C)nc(Nc3ccncc3F)c21` [Example 51], the IC50 under setting [1] amounted to 13.2 nM.
With `CC(C)n1cnc2cc(-c3ccc4c(c3)N([C@H]3C[C@@H](N5CCCCC5)C3)C(=O)C43CCN(C(=O)C(C)(C)C)CC3)nc(Nc3ccncc3F)c21` [Example 170], the IC50 (geometric mean) amounted to 0.3 nM.
As to `CC(C)n1cnc2cc(-c3ccc4c(c3)N([C@H]3C[C@@H](N5CCC6(CC6)C5)C3)C(=O)C43CCN(C(=O)C4(C)COC4)CC3)nc(Nc3ccncc3F)c21` [Example 5], the half-maximal inhibitory concentration (IC50) under setting [1] amounted to 0.5 nM.
Still for that read-out and setting: as for `CCn1cnc2cc(-c3ccc4c(c3)N([C@H]3C[C@@H](N5CCCCC5)C3)C(=O)C43CCN(C(=O)[C@@H](C)O)CC3)nc(Nc3ccc(F)nc3F)c21` [Example 73], the figure is 0.2 nM.
Regarding `CO[C@@H](C)C(=O)N1CCC2(CC1)C(=O)N([C@H]1C[C@@H](N3CCCCC3)C1)c1cc(-c3cc4ncn(C(C)C)c4c(Nc4ccncc4F)n3)ccc12` [Example 152], the IC50 (geometric mean) amounted to 0.5 nM.
